According to ChEMBL document CHEMBL6087459 (J Med Chem, 2025):
pEC50, pIC50: −log10 of the molar value. One block for each molecule: values may come before it. Active and inactive are the calls of the source. The calls are words filed in the database; no cut-off is given here.

Assays:
HCT-8 [1] = assay: Cytotoxicity against human HCT-8 cells assessed as reduction in cell numbers at 50 uM incubated for 48 hrs by high-density microscopic celltiter aqueous assay relative to control; assay type: toxicity, cell-based; parameters: scale not given: the % may be the effect or the level left; details: hct-8, 48 h
Cryptosporidium parvum [2] = assay: Antiparasitic activity against Cryptosporidium parvum Iowa oocyst infected in human HCT-8 cells assessed as reduction in asexual replication pre-infected with cells for 3 hrs followed by compound addition and measured after 48 hrs by staining based automated fluorescence microscopic analysis; assay type: functional, organism-based
HCT-8 [3] = assay: Cytotoxicity against human HCT-8 cells assessed as reduction in cell numbers at 25 uM incubated for 48 hrs by high-density microscopic celltiter aqueous assay relative to control; assay type: toxicity, cell-based; parameters: scale not given: the % may be the effect or the level left; details: hct-8, 48 h
HCT-8 [4] = assay: Cytotoxicity against human HCT-8 cells assessed as inhibition of cell proliferation at 25 to 50 uM incubated for 48 hrs by Celltiter aqueous assay; assay type: toxicity, cell-based; details: hct-8, 48 h, dose 25-50 µM
[5] = target: T1, 3',5'-cyclic-AMP phosphodiesterase 4D (Homo sapiens, UniProt Q08499); assay: Inhibition of human PDE4D2 at 10 uM by Eurofins kinase assay relative to control
[6] = target: cGMP-inhibited 3',5'-cyclic phosphodiesterase 3B (Homo sapiens) (UniProt Q13370); assay: Inhibition of human PDE3B at 10 uM by Eurofins kinase assay relative to control
Homo sapiens [7] = organism: Homo sapiens; assay: Inhibition of human PDE4A1A at 10 uM by Eurofins kinase assay relative to control
Homo sapiens [8] = organism: Homo sapiens; assay: Inhibition of human PDE6 at 10 uM by Eurofins kinase assay relative to control
[9] = target: High affinity cAMP-specific and IBMX-insensitive 3',5'-cyclic phosphodiesterase 8A (Homo sapiens) (UniProt O60658); assay: Inhibition of human PDE8A1 at 10 uM by Eurofins kinase assay relative to control
[10] = target: 3',5'-cyclic-AMP phosphodiesterase 4B (Homo sapiens) (UniProt Q07343); assay: Inhibition of human PDE4B1 at 10 uM by Eurofins kinase assay relative to control
[11] = target: cGMP-inhibited 3',5'-cyclic phosphodiesterase 3A (Homo sapiens) (UniProt Q14432); assay: Inhibition of human PDE3A at 10 uM by Eurofins kinase assay relative to control
Homo sapiens [12] = organism: Homo sapiens; assay: Inhibition of human PDE1B at 10 uM by Eurofins kinase assay relative to control
[13] = target: High affinity 3',5'-cyclic-AMP phosphodiesterase 7A (Homo sapiens) (UniProt Q13946); assay: Inhibition of human PDE7A1 at 10 uM by Eurofins kinase assay relative to control
[14] = target: cGMP-specific 3',5'-cyclic phosphodiesterase (Homo sapiens) (UniProt O76074); assay: Inhibition of human PDE5 at 10 uM by Eurofins kinase assay relative to control
HCT-8 [15] = assay: Cytotoxicity against human HCT-8 cells assessed as reduction in cell numbers upto 50 uM incubated for 48 hrs by high-density microscopic celltiter aqueous assay; assay type: toxicity, cell-based; details: hct-8, 48 h
Cryptosporidium parvum [16] = assay: Antiparasitic activity against Cryptosporidium parvum Iowa oocyst infected in NOD SCID gamma mouse model assessed as reduction in parasite fecal shedding at 50 mg/kg, po administered twice daily for 7 days starting from day 7 post infection and measured on day 21 by qPCR analysis; assay type: functional, organism-based; details: time 14.0 day
[17] = target: cGMP-dependent 3',5'-cyclic phosphodiesterase (Homo sapiens) (UniProt O00408); assay: Inhibition of human PDE2A1 at 10 uM by Eurofins kinase assay relative to control
[18] = target: cAMP and cAMP-inhibited cGMP 3',5'-cyclic phosphodiesterase 10A (Homo sapiens) (UniProt Q9Y233); assay: Inhibition of human PDE10A2 at 10 uM by Eurofins kinase assay relative to control
[19] = target: Dual 3',5'-cyclic-AMP and -GMP phosphodiesterase 11A (Homo sapiens) (UniProt Q9HCR9); assay: Inhibition of human PDE11A at 10 uM by Eurofins kinase assay relative to control
Cytochrome P450 2B6 [20] = target: T2, Cytochrome P450 2B6 (Homo sapiens, UniProt P20813); assay: Inhibition of CYP2B6 (unknown origin) incubated for 20 mins by fast gradient LC-MS analysis
PDE4B1 = PDE4B1 (Homo sapiens, UniProt Q07343); assay: Inhibition of recombinant human PDE4B1 extracted from Sf9 cells using [3H]cAMP as substrate at 10 uM by Eurofins kinase assay relative to control; assay type: toxicity, cell-free; details: probe [3H]cAMP
Cytochrome P450 1A2 = Cytochrome P450 1A2 (Homo sapiens, UniProt P05177); assay: Inhibition of recombinant human CYP1A2 by Eurofins assay; assay type: ADME
Cytochrome P450 2C8 = Cytochrome P450 2C8 (Homo sapiens, UniProt P10632); assay: Inhibition of recombinant human CYP2C8 by Eurofins assay; assay type: ADME
[21] = Aqueous solubility of compound at pH 7.4; assay type: physicochemical
[22] = target: T1, 3',5'-cyclic-AMP phosphodiesterase 4D; assay: Inhibition of human PDE4D2 by Eurofins kinase assay; assay type: toxicity
Cytochrome P450 2C19 = Cytochrome P450 2C19 (Homo sapiens, UniProt P33261); assay: Inhibition of recombinant human CYP2C19 by Eurofins assay; assay type: ADME
[23] = Cytotoxicity against human HCT-8 cells assessed as inhibition of cell proliferation incubated for 48 hrs by Celltiter aqueous assay; assay type: toxicity, cell-based; details: read-out: TC50
PDE11A = PDE11A (Homo sapiens, UniProt Q9HCR9); assay: Inhibition of recombinant human PDE11A extracted from Sf9 cells using [3H]cAMP as substrate at 10 uM by Eurofins kinase assay relative to control; assay type: toxicity, cell-free; details: probe [3H]cAMP
Cytochrome P450 3A4 = Cytochrome P450 3A4 (Homo sapiens, UniProt P08684); assay: Inhibition of recombinant human CYP3A4 by Eurofins assay; assay type: ADME
PDE6 = assay: Inhibition of bovine retina PDE6 using [3H]cGMP as substrate at 10 uM by Eurofins kinase assay relative to control; assay type: toxicity, Bos taurus; details: cattle, bovine retina PDE6, probe [3H]cGMP
Cytochrome P450 2B6 [24] = target: T2, Cytochrome P450 2B6; assay: Inhibition of recombinant human CYP2B6 by Eurofins assay; assay type: ADME
PDE5 = PDE5 (Homo sapiens, UniProt O76074); assay: Inhibition of human platelet PDE5 using [3H]cGMP as substrate at 10 uM by Eurofins kinase assay relative to control; assay type: toxicity; details: human platelet PDE5, probe [3H]cGMP
Cytochrome P450 2D6 = Cytochrome P450 2D6 (Homo sapiens, UniProt P10635); assay: Inhibition of recombinant human CYP2D6 by Eurofins assay; assay type: ADME
[25] = target: Voltage-gated inwardly rectifying potassium channel KCNH2 (Homo sapiens, UniProt Q12809); assay: Inhibition of human ERG by Eurofins kinase assay; assay type: toxicity

Chain of cGMP-dependent 3',5'-cyclic phosphodiesterase (Homo sapiens) (O00408 whole entry): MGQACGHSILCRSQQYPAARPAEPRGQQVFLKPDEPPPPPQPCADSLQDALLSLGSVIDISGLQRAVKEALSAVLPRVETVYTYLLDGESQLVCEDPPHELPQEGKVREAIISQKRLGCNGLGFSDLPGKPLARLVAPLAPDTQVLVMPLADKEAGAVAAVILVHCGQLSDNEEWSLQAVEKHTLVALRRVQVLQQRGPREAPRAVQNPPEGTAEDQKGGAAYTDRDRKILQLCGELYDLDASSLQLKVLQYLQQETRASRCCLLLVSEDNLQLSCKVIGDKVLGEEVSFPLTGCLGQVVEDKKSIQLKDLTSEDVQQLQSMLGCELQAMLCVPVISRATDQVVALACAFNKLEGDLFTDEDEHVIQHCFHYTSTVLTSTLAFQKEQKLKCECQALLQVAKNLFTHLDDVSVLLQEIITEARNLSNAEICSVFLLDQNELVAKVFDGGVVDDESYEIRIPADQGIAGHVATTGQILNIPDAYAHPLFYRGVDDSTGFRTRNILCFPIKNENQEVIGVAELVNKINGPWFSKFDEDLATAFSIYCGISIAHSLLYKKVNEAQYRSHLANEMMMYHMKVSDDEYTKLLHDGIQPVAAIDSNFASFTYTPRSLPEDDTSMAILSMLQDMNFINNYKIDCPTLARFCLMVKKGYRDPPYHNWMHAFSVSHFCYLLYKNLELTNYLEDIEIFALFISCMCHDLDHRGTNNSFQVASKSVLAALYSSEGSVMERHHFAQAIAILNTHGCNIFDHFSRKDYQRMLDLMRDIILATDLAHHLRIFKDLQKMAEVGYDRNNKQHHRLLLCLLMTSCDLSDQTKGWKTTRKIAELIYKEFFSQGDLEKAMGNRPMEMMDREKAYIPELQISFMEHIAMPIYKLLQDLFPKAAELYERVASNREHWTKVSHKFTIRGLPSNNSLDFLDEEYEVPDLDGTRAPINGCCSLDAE
Chain of 3',5'-cyclic-AMP phosphodiesterase 4B (Homo sapiens) (Q07343 whole entry): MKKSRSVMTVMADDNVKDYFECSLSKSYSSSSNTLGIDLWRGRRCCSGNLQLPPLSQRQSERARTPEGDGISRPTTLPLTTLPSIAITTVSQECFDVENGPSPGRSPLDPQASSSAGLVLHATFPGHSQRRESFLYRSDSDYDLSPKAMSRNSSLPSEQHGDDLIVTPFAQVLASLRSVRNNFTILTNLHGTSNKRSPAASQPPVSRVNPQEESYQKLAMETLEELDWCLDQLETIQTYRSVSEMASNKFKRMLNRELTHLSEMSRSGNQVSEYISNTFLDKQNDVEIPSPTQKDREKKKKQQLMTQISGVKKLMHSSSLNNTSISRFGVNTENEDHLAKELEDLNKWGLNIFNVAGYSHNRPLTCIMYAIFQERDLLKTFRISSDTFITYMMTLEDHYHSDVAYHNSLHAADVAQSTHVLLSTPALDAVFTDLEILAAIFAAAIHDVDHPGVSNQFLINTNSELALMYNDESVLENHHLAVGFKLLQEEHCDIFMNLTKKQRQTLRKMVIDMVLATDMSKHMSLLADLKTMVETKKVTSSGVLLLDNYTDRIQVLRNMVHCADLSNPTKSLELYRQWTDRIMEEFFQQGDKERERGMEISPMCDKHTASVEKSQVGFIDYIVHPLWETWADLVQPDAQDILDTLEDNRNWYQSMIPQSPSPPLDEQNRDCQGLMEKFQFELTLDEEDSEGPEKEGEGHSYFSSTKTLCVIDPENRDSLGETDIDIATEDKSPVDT
Chain of cGMP-inhibited 3',5'-cyclic phosphodiesterase 3B (Homo sapiens) (Q13370 whole entry, looked up): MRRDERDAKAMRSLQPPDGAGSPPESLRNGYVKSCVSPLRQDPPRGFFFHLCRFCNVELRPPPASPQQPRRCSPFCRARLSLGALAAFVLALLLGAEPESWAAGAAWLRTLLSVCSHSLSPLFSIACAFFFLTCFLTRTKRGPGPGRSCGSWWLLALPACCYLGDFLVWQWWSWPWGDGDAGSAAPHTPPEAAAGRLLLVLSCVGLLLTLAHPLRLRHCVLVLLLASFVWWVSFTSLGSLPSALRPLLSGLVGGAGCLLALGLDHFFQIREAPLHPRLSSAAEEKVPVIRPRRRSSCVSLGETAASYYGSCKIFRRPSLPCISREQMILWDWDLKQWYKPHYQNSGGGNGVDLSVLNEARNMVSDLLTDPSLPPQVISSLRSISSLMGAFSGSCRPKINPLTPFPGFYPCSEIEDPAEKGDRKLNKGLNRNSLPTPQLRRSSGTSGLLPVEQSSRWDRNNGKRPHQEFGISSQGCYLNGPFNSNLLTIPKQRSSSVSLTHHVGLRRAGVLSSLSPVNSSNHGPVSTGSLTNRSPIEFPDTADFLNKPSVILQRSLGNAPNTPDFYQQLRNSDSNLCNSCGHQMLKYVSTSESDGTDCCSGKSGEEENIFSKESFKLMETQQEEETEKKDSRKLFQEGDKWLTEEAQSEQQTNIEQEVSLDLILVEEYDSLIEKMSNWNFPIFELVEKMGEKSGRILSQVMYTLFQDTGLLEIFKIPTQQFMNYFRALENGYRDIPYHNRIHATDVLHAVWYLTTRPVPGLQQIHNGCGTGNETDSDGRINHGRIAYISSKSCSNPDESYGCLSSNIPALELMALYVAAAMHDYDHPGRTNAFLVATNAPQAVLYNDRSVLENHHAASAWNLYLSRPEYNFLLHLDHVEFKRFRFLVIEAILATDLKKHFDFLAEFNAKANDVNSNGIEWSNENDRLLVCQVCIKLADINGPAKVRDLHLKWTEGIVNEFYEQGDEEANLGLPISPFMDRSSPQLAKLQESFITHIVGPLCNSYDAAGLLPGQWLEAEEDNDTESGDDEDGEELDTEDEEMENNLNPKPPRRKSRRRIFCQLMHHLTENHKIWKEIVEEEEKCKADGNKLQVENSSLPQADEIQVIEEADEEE
Chain of cGMP-inhibited 3',5'-cyclic phosphodiesterase 3A (Homo sapiens) (Q14432 whole entry): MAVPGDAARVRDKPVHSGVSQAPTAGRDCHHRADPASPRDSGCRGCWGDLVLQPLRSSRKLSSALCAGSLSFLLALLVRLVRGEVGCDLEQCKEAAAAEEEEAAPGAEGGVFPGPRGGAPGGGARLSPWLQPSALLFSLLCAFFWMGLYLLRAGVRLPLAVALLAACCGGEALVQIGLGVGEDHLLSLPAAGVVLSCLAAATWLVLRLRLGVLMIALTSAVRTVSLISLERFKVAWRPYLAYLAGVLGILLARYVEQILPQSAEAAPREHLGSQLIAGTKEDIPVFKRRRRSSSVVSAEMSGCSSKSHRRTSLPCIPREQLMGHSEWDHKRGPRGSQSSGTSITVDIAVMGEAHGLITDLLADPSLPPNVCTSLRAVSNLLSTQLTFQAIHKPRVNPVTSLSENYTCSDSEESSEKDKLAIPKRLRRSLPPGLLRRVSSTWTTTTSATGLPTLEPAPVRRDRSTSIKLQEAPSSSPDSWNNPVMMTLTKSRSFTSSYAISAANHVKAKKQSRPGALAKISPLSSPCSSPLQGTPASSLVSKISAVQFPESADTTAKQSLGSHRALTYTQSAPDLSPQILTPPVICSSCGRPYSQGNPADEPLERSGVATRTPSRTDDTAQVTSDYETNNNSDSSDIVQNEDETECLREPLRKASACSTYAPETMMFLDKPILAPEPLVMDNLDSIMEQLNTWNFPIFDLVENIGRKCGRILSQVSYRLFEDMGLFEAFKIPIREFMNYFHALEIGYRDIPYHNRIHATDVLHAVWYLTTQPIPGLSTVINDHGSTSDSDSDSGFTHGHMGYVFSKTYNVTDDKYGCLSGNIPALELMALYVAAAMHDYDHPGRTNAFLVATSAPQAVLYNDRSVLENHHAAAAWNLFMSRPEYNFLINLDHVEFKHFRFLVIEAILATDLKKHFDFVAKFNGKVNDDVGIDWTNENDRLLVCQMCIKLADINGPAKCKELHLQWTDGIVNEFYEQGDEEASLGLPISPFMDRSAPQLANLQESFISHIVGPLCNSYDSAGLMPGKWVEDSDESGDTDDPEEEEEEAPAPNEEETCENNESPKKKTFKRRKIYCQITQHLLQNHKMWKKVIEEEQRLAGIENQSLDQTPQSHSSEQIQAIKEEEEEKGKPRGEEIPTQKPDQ
Chain of High affinity cAMP-specific and IBMX-insensitive 3',5'-cyclic phosphodiesterase 8A (Homo sapiens) (O60658 whole entry): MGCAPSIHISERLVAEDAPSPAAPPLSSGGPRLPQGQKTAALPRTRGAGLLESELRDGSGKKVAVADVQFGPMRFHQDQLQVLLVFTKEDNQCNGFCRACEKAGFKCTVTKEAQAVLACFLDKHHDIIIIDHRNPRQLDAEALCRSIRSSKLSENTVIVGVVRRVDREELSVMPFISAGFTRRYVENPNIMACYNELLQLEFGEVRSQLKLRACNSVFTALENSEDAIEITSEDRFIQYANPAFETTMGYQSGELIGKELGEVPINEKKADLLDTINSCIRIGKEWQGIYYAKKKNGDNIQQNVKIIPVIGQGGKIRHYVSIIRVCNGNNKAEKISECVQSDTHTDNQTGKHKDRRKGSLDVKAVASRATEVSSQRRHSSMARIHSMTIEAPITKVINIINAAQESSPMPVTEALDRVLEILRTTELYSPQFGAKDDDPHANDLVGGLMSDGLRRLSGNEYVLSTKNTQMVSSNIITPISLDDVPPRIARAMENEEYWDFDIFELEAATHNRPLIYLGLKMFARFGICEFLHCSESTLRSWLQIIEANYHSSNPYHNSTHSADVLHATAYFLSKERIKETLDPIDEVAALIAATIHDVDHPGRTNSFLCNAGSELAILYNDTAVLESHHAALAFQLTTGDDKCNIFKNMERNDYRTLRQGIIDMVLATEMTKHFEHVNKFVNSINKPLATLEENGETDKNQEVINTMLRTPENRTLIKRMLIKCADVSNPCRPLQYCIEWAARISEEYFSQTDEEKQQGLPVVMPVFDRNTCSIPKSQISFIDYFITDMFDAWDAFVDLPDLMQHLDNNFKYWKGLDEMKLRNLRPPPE
Chain of PDE4B1 (Q07343 whole entry): as the sequence (Q07343 whole entry) above

Compound: CCc1nn(C)c2nc(-c3ccc(B(O)O)cc3)nc(NCc3ccc(F)cc3)c12
- pEC50 (Cryptosporidium parvum [2]): 6.11
- inhibition [5]: 91%
- inhibition [6]: 45%
- inhibition (Homo sapiens [7]): 93%
- inhibition (Homo sapiens [8]): 98%
- inhibition [9]: 29%
- inhibition [10]: 96%
- inhibition [11]: 62%
- inhibition [19]: 82%
- inhibition (Homo sapiens [12]): 31%
- inhibition [13]: 62%
- inhibition [14]: 73%
- Activity (HCT-8 [15]): Non-toxic
- Activity (Cryptosporidium parvum [16]): Active
- inhibition [17]: 95%
- inhibition [18]: 24%

Compound: COC(=O)[C@H](c1ccccc1Cl)N1CCc2sccc2C1 [CLOPIDOGREL]
- pIC50 (Cytochrome P450 2B6 [20]): 6.70

Compound: CCOC(=O)c1cccc(-c2nc(NCc3ccc(F)cc3)c3c(CC)nn(C)c3n2)c1
- pEC50 (Cryptosporidium parvum [2]): 5.26
- Activity (HCT-8 [15]): Non-toxic

Compound: CCc1nn(C)c2nc(-c3cccc(OC)c3)nc(NCc3ccc(F)cc3)c12
- pEC50 (Cryptosporidium parvum [2]): 4.82
- Activity (HCT-8 [15]): Non-toxic

Compound: CCc1nn(C)c2nc(-c3ccc(CC(=O)O)cc3)nc(NCc3ccc(F)cc3)c12
- pEC50 (Cryptosporidium parvum [2]): 5.02
- Activity (HCT-8 [15]): Non-toxic

Compound: CCc1nn(C)c2nc(-c3ccc(C(=O)N4CCNCC4)cc3)nc(NCc3ccc(F)cc3)c12
- pEC50 (Cryptosporidium parvum [2]): 5.24
- Activity (HCT-8 [15]): Non-toxic

Continued, in another order:

- pEC50 (Cryptosporidium parvum [2]): 5.21
Compound: CCc1nn(C)c2nc(-c3ccc4c(O)n[nH]c4c3)nc(NCc3ccc(F)cc3)c12
- Activity (HCT-8 [1]): 89%
- Activity (HCT-8 [3]): 78%
- Activity (HCT-8 [4]): Toxic

- inhibition [5]: 27%
- inhibition [6]: 8%
- inhibition (Homo sapiens [7]): 54%
- inhibition (Homo sapiens [8]): 63%
- inhibition [9]: 20%
- inhibition [10]: 73%
- inhibition [11]: 17%
- inhibition (Homo sapiens [12]): -7.2%
- inhibition [13]: 23%
- inhibition [14]: 80%
- inhibition [17]: 32%
- inhibition [18]: -5.5%
Compound: CCc1nn(C)c2nc(-c3ccc4c(c3)COB4O)nc(NCc3ccc(F)cc3)c12
- Activity (HCT-8 [15]): Non-toxic
- Activity (Cryptosporidium parvum [16]): Active

- pEC50 (Cryptosporidium parvum [2]): 5.28
Compound: CCc1nn(C)c2nc(-c3ccc(F)c(C(=O)O)c3)nc(NCc3ccc(F)cc3)c12
- Activity (HCT-8 [15]): Non-toxic

- inhibition [5]: 42%
- pIC50 (Cytochrome P450 1A2): < 5.00
- inhibition [6]: 2%
- inhibition (Homo sapiens [7]): 31%
- inhibition (Homo sapiens [8]): 79%
- pIC50 (Cytochrome P450 2C8): < 5.00
- solubility [21]: > 200 µM
- pIC50 (Cytochrome P450 2C19): < 5.00
- inhibition [9]: 30%
- inhibition [10]: 54%
- inhibition [11]: 27%
- inhibition [19]: 55%
- pIC50 (Cytochrome P450 3A4): < 5.00
- pIC50 (Cytochrome P450 2B6 [24]): < 5.00
- inhibition (Homo sapiens [12]): 18%
- inhibition [13]: 22%
- inhibition [14]: 93%
- pIC50 (Cytochrome P450 2D6): < 5.00
- inhibition [17]: 36%
- inhibition [18]: 37%
Compound: CCc1nn(C)c2nc(-c3ccc(C(=O)O)cc3)nc(NCc3ccc(F)cc3)c12
- inhibition at 10 µM (PDE4B1): > 50%
- pIC50 [22]: 5.09
- CC50 at 48 h [23]: > 100 µM
- inhibition at 10 µM (PDE11A): > 50%
- inhibition at 10 µM (PDE6): > 50%
- inhibition at 10 µM (PDE5): > 50%
- Activity (HCT-8 [15]): Non-toxic
- pIC50 [25]: < 5.00
- Activity (Cryptosporidium parvum [16]): Active

- pEC50 (Cryptosporidium parvum [2]): 5.52
Compound: CCc1nn(C)c2nc(-c3ccc4c(O)nn(C)c4c3)nc(NCc3ccc(F)cc3)c12
- Activity (HCT-8 [15]): Non-toxic

- pEC50 (Cryptosporidium parvum [2]): < 4.30
Compound: CCc1nn(C)c2nc(-c3ccc4c(c3)CNC4=O)nc(NCc3ccc(F)cc3)c12
- Activity (HCT-8 [15]): Non-toxic
